{"source": "patent US7098376B2", "about": "“Transgenic mouse expressing constitutively active hydrocarbon receptor” (InDex Pharmaceuticals AB, priority 2000, dated 2006)", "origin": "cited, not measured here", "test_system": "mouse models"}
{"smiles": "Clc1cc2c(cc1Cl)Oc1cc(Cl)c(Cl)cc1O2", "note": "[TCDD, 2,3,7,8-tetrachlorodibenzo-p-dioxin]", "values": [{"measurement": "dose at which weight loss or impaired weight gain are detected", "setting": "mice exposed to TCDD", "value": "higher than 3 μg/kg body weight"}, {"measurement": "acute toxic effects (e.g. lethality or the wasting syndrome)", "setting": "single dose of 3 μg TCDD/kg body weight, mouse models", "value": "no acute toxic effects"}]}
